Active and inactive are the calls of the source.
What was measured:
Format in all cases: functional, cell-based
[1] = test system: RAW264.7; test: Antiinflammatory activity against LPS-induced mouse RAW264.7 cells assessed as reduction in iNOS protein level at 20 uM
[2] = test system: RAW264.7; test: Antiinflammatory activity against LPS-induced mouse RAW264.7 cells assessed as reduction in COX-2 protein level at 20 uM
[3] = test system: NRK-52E; test: Anti-renal-fibrosis activity in TGF-beta1 induced rat NRK-52E cells assessed as downregulation of fibronectin protein level at 20 uM by Western blot analysis
[4] = test system: NRK-52E; test: Anti-renal-fibrosis activity in TGF-beta1 induced rat NRK-52E cells assessed as downregulation of collagen I protein level at 20 uM by Western blot analysis
[5] = test system: NRK-52E; test: Anti-renal-fibrosis activity in TGF-beta1 induced rat NRK-52E cells assessed as downregulation of alpha-SMA protein level at 20 uM by Western blot analysis

Measured: Activity

N=C(N)N1CCC[C@H]1c1ccc2cc(O)cnc2c1O
active: [1] | [2]

COc1c(O)c(=O)n(C)c2c(O)cccc12
active: [1] | [2] | [3] | [4] | [5]

COc1cc(=O)n(C)c2c(O)cccc12
active: [1] | [2] | [3] | [4] | [5]

COc1c(O)cnc2c(O)cccc12
active: [1] | [2]

Oc1cnc2c(O)cccc2c1
active: [1] | [2]

COc1cc(=O)[nH]c2c(OC)cccc12
active: [1] | [2] | [3] | [4] | [5]

— ChEMBL document CHEMBL5335856, “Structurally Diverse Alkaloids with Anti-Renal-Fibrosis Activity from the Centipede Scolopendra subspinipes mutilans” (J Nat Prod, 2024)
